# Like-named read-outs stand apart in the source and are kept apart here.
# Biological target: T1, MMP-13 catalytic domain (MMP-13CD) (Homo sapiens, UniProt P45452)
# T1 construct: use the catalytic domain of the MMP-13 enzyme, namely matrix metalloproteinase-13 catalytic domain (“MMP-13CD”), rather than the corresponding full-length enzyme
# Experiment: Inhibition of MMP-13 catalytic domain (thiopeptolide substrate hydrolysis)
# Type: biochemical
# From the text: The assays measure the amount by which a test compound reduces the hydrolysis of a thiopeptolide substrate catalyzed by a matrix metalloproteinase enzyme. Such assays are described in detail by Ye et al., in Biochemistry, 1992;31(45):11231-11235, which is incorporated herein by reference. One such assay is described below in Biological Method 1.
# Some of the particular methods described below use the catalytic domain of the MMP-13 enzyme, namely matrix metalloproteinase-13 catalytic domain (“MMP-13CD”), rather than the corresponding full-length enzyme, MMP-13. It has been shown previously by Ye Qi-Zhuang, Hupe D., and Johnson L. (Current Medicinal Chemistry, 1996;3:407-418) that inhibitor activity against a catalytic domain of an MMP is predictive of the inhibitor activity against the respective full-length MMP enzyme.
# Thiopeptolide substrates show virtually no decomposition or hydrolysis at or below neutral pH in the absence of a matrix metalloproteinase enzyme. A typical thiopeptolide substrate commonly utilized for assays is Ac-Pro-Leu-Gly-thioester-Leu-Leu-Gly-OEt. A 100 μL assay mixture will contain 50 mM of N-2-hydroxyethylpiperazine-N′-2-ethanesulfonic acid buffer (“HEPES,” pH 7.0), 10 mM CaCl2, 100 μM thiopeptolide substrate, and 1 mM 5,5′-dithio-bis-(2-nitro-benzoic acid) (DTNB). The thiopeptolide substrate concentration may be varied, for example from 10 to 800 μM to obtain Km and Kcat values. The change in absorbance at 405 nm is monitored on a Thermo Max microplate reader (molecular Devices, Menlo Park, Calif.) at room temperature (22° C.). The calculation of the amount of hydrolysis of the thiopeptolide substrate is based on E412=13600 M^−1 cm^−1 for the DTNB-derived product 3-carboxy-4-nitrothiophenoxide. Assays are carried out with and without matrix metalloproteinase inhibitor compounds, and the amount of hydrolysis is compared for a determination of inhibitory activity of the test compounds.
# Test compounds were evaluated at various concentrations in order to determine their respective IC50 values, the micromolar concentration of compound required to cause a 50% inhibition of catalytic activity of the respective enzyme.
# [1] = Biological Table 1, read-out: MMP-13CD IC50
# [2] = Biological Table 2, compounds of Example 66, read-out: MMP-13CD IC50
# [3] = read-out: IC50 with MMP-13 catalytic domain
SMILES,IC50 [1],IC50 [2],also measured
"CS(=O)(=O)c1ccc(Cn2ccc3ccc(C(=O)NCc4cccnc4)cc3c2=O)cc1 [Example 50, 2-(4-methane-sulfonylbenzyl)-1-oxo-1,2-dihydro-isoquinoline-7-carboxylic Acid (pyridin-3-ylmethyl)amide]",7.4 µM,,
"N#CCCCCCn1ccc2ccc(C#CCc3ccccc3)cc2c1=O [Example 66af, 6-[1-Oxo-7-(3-phenyl-prop-1-ynyl)-1H-isoquinolin-2-yl]-hexanenitrile]",,8.6 µM,
"CS(=O)(=O)c1ccc(Cn2ccc3ccc(C(=O)NCc4ccncc4)cc3c2=O)cc1 [Example 49, 2-(4-methanesulfonylbenzyl)-1-oxo-1,2-dihydroisoquinoline-7-carboxylic Acid (pyridin-4-ylmethyl)amide]",3.1 µM,,
"N#Cc1ccc(Cn2ccc3ccc(C(=O)NCc4cncnc4)cc3c2=O)cc1 [Example 38, 2-(4-cyanobenzyl)-1-oxo-1,2-dihydro-isoquinoline-7-carboxylic Acid (pyrimidin-5-ylmethyl)amide]",17 µM,,
"O=c1c2cc(C#CCc3ccccc3)ccc2ccn1CC(O)CO (centres unmarked) [Example 66e, 2-(2,3-Dihydroxy-propyl)-7-(3-phenyl-prop-1-ynyl)-2H-isoquinolin-1-one]",,50 µM,
"O=C(O)c1ccc(Cn2ccc3ccc(C#CCc4ccccc4)cc3c2=O)cc1 [Example 1, 4-[1-Oxo-7-(3-phenyl-prop-1-ynyl)-1H-isoquinolin-2-ylmethyl]benzoic Acid]",,,IC50 [3]: 0.0018 µM
"COCCn1ccc2ccc(C#CCc3ccccc3)cc2c1=O [Example 66w, 2-(2-Methoxy-ethyl)-7-(3-phenyl-prop-1-ynyl)-2H-isoquinolin-1-one]",,> 30 µM,
"NS(=O)(=O)c1ccc(Cn2ccc3ccc(C#CCc4ccccc4)cc3c2=O)cc1 [Example 5, 4-[1-Oxo-7-(3-phenyl-prop-1-ynyl)-1H-isoquinolin-2-ylmethyl]benzenesulfonamide]",,,IC50 [3]: 0.036 µM
"N#Cc1ccc(Cn2ccc3ccc(C(=O)NCc4cccnc4)cc3c2=O)cc1 [Example 34, 2-(4-cyanobenzyl)-1-oxo-1,2-dihydro-isoquinoline-7-carboxylic acid (pyridin-3-ylmethyl)amide]",3.4 µM,,
"O=C(NCc1cncnc1)c1ccc2ccn(Cc3ccc(F)c(F)c3)c(=O)c2c1 [Example 26, 2-(3,4-difluorobenzyl)-1-oxo-1,2-dihydroisoquinoline-7-carboxylic Acid (pyrimidin-5-ylmethyl)-amide]",12 µM,,
"N#CCCCCn1ccc2ccc(C#CCc3ccccc3)cc2c1=O [Example 66j, 5-[1-Oxo-7-(3-phenyl-prop-1-ynyl)-1H-isoquinolin-2-yl]-pentanenitrile]",,11 µM,
"COC(=O)CCCCn1ccc2ccc(C#CCc3ccccc3)cc2c1=O [Example 66p, 5-[1-Oxo-7-(3-phenyl-prop-1-ynyl)-1H-isoquinolin-2-yl]-pentanoic acid methyl ester]",,9.4 µM,
"COc1ccc(CNC(=O)c2ccc3ccn(CCOc4ccccc4)c(=O)c3c2)cc1 [Example 44, 1-oxo-2-(2-phenoxyethyl)-1,2-dihydroisoquinoline-7-carboxylic Acid 4-methoxybenzylamide]",7.5 µM,,
"O=c1c2cc(C#CCc3ccccc3)ccc2ccn1CS(=O)(=O)c1ccccc1 [Example 66ad, 2-Benzenesulfonylmethyl-7-(3-phenyl-prop-1-ynyl)-2H-isoquinolin-1-one]",,20 µM,
"O=c1c2cc(C#CCc3ccccc3)ccc2ccn1CC1CCCO1 (centres unmarked) [Example 66i, 7-(3-Phenyl-prop-1-ynyl)-2-(tetrahydro-furan-2-ylmethyl)-2H-isoquinolin-1-one]",,13 µM,
"O=C(NCCn1cccc1)c1ccc2ccn(Cc3ccc(-c4nn[nH]n4)cc3)c(=O)c2c1 [Example 63, 1-oxo-2-[4-(2H-tetrazol-5-yl)benzyl]-1,2-dihydroisoquinoline-7-carboxylic Acid (2-pyrrol-1-yl-ethyl)amide]",49 µM,,
"CCOC(=O)CCCCn1ccc2ccc(C#CCc3ccccc3)cc2c1=O [Example 66s, 5-[1-Oxo-7-(3-phenyl-prop-1-ynyl)-1H-isoquinolin-2-yl]-pentanoic acid ethyl ester]",,8.7 µM,
"CSc1ccc(CNC(=O)c2ccc3ccn(CCOc4ccccc4)c(=O)c3c2)cc1 [Example 48, 1-oxo-2-(2-phenoxyethyl)-1,2-dihydroisoquinoline-7-carboxylic Acid 4-methylsulfanylbenzamide]",4.2 µM,,

SMILES,IC50 [1],IC50 [2],also measured
"O=c1c2cc(C#CCc3ccccc3)ccc2ccn1Cc1cccc(Cl)c1 [Example 10, 2-(3-Chlorobenzyl)-7-(3-phenylprop-1-ynyl)-2H-isoquinolin-1-one]",,,IC50 [3]: 0.052 µM
"O=C(NCc1cncnc1)c1ccc2ccn(CCOc3ccccc3)c(=O)c2c1 [Example 46, 1-oxo-2-(2-phenoxyethyl)-1,2-dihydroisoquinoline-7-carboxylic Acid (pyrimidin-5-ylmethyl)-amide]",> 100 µM,,
"O=C(NCc1ccncc1)c1ccc2ccn(CCOc3ccccc3)c(=O)c2c1 [Example 41, 1-oxo-2-(2-phenoxyethyl)-1,2-dihydroisoquinoline-7-carboxylic Acid (pyridin-4-ylmethyl)amide]",26 µM,,
"Cc1ccc(CNC(=O)c2ccc3ccn(Cc4ccc(S(C)(=O)=O)cc4)c(=O)c3c2)cc1 [Example 55, 2-(4-methane-sulfonylbenzyl)-1-oxo-1,2-dihydro-isoquinoline-7-carboxylic Acid 4-methylbenzyl-amide]",> 30 µM,,
"Cc1ccc(CNC(=O)c2ccc3ccn(Cc4ccc(C#N)cc4)c(=O)c3c2)cc1 [Example 39, 2-(4-cyanobenzyl)-1-oxo-1,2-dihydro-isoquinoline-7-carboxylic Acid 4-methylbenzylamide]",> 10 µM,,
"CCOC(=O)CCCCCn1ccc2ccc(C#CCc3ccccc3)cc2c1=O [Example 66v, 6-[1-Oxo-7-(3-phenyl-prop-1-ynyl)-1H-isoquinolin-2-yl]-hexanoic acid ethyl ester]",,8.7 µM,
"O=C(O)c1ccc(Cn2ccc3ccc(C#CCn4ccnn4)cc3c2=O)cc1 [4-[1-oxo-7-(3-[1,2,3]triazol-1-ylprop-1-ynyl)-1H-isoquinolin-2-ylmethyl]benzoic acid]",,,"IC50 (hMMP-13CD, text b731, read-out: IC50 with hMMP-13CD): > 50 µM"
"CCOC(=O)Cn1ccc2ccc(C#CCc3ccccc3)cc2c1=O [Example 66x, [1-Oxo-7-(3-phenyl-prop-1-ynyl)-1H-isoquinolin-2-yl]-acetic acid ethyl ester]",,11 µM,
"CCOC(Cn1ccc2ccc(C#CCc3ccccc3)cc2c1=O)OCC [Example 66r, 2-(2,2-Diethoxy-ethyl)-7-(3-phenyl-prop-1-ynyl)-2H-isoquinolin-1-one]",,33 µM,
"CS(=O)(=O)c1ccc(Cn2ccc3ccc(C(=O)NCc4cncnc4)cc3c2=O)cc1 [Example 54, 2-(4-methane-sulfonylbenzyl)-1-oxo-1,2-dihydro-isoquinoline-7-carboxylic Acid (pyrimidin-5-ylmethyl)amide]",35 µM,,
"CC(=O)OCCCCn1ccc2ccc(C#CCc3ccccc3)cc2c1=O [Example 66l, Acetic acid 4-[1-oxo-7-(3-phenyl-prop-1-ynyl)-1H-isoquinolin-2-yl]-butyl ester]",,14 µM,
"CCOC(=O)CCn1ccc2ccc(C#CCc3ccccc3)cc2c1=O [Example 66t, 3-[1-Oxo-7-(3-phenyl-prop-1-ynyl)-1H-isoquinolin-2-yl]-propionic acid ethyl ester]",,> 100 µM,
"O=c1c2cc(C#CCc3ccccc3)ccc2ccn1CCCCCCO [Example 66ac, 2-(6-Hydroxy-hexyl)-7-(3-phenyl-prop-1-ynyl)-2H-isoquinolin-1-one]",,7.1 µM,
"O=C(O)c1ccc(Cn2ccc3ccc(C(=O)NCc4cncnc4)cc3c2=O)cc1 [Example 28, 4-[1-oxo-7-[(pyrimidin-5-ylmethyl)carbamoyl]-1H-isoquinolin-2-ylmethyl]benzoic Acid]",1.8 µM,,
"COC(=O)CCn1ccc2ccc(C#CCc3ccccc3)cc2c1=O [Example 66k, 3-[1-Oxo-7-(3-phenyl-prop-1-ynyl)-1H-isoquinolin-2-yl]-propionic acid methyl ester]",,> 100 µM,
"CC(C)(C)C(=O)Cn1ccc2ccc(C#CCc3ccccc3)cc2c1=O [Example 66ae, 2-(3,3-Dimethyl-2-oxo-butyl)-7-(3-phenyl-prop-1-ynyl)-2H-isoquinolin-1-one]",,19 µM,
"O=c1c2cc(C#CCc3ccccc3)ccc2ccn1CC[S+]([O-])c1ccccc1 (centres unmarked) [Example 66z, 2-(2-Benzenesulfinyl-ethyl)-7-(3-phenyl-prop-1-ynyl)-2H-isoquinolin-1-one]",,> 100 µM,

# From patent US20040044000A1, “Isoquinoline derivatives as matrix metalloproteinase inhibitors” (priority 2002, published 2004)
